Holding throughout (type): in vivo
One test concerns Plutella xylostella. The experiment in a line: Plutella xylostella leaf dip method. Particulars: foliar, cabbage leaves, second instar larvae, 72 h after release, dead + moribund vs untreated control, read-out: per cent mortality. As to the method:
The leaf dip method was used for testing, wherein the required quantity of the compound was weighed and dissolved in a tube containing solvent solution. The tube was put on a vortex at 2000 rpm for 90 min for proper mixing, then, diluted with a 0.01% Triton-X solution to the desired test concentration. Cabbage leaves were dipped in the compound solution for 10 seconds, shade dried for 20 min and then transferred into the cells of bioassay trays. A single second instar larva was released into each cell and the tray was covered with a lid. The bio-assay trays were then kept under laboratory conditions at a temperature of 25° C. and a relative humidity of 70%. Observations on dead, moribund and alive larvae were recorded 72 h after the release. Percent mortality was calculated by combining dead and moribund larvae and comparing the result to the one of the untreated control. The compounds, […]

A further test relates to Tetranychus urticae. Nature of the test: Tetranychus urticae leaf dip method. To be noted: foliar, French bean leaves, third instar nymphs, 72 h after release, dead + moribund vs untreated control, read-out: percent mortality. As to the method: (§1) The leaf dip method was used for testing, wherein the required quantity of the compound was weighed and dissolved in a tube containing solvent solution. The tube was put on a vortex at 2000 rpm for 90 min for proper mixing, then, diluted with 0.01% Triton-X solution to the desired test concentration. French bean leaves were dipped in the compound solution for 10 seconds, shade dried for 20 min and then placed, with the abaxial side of the leaf up, in single cells of a bio-assay tray containing 4 mL of a solidified 1% agar-agar solution. Known numbers of third instar nymphs were released into the cell with the treated leaf and the cell was covered with a perforated lid for better aeration. The trays were kept in a plant growth chamber at a temperature of 25° C. and a relative humidity of 70%. Observations on dead, moribund and alive nymphs were recorded 72 h after the release. Percent mortality was calculated by combining dead and moribund nymphs and comparing the result with the one of the untreated control. The compounds 1 2 26 38 40 46 47 48 and 49 recorded ≥70 percent mortality @ 300 PPM.

The test system of another test is Scirtothrips dorsalis. Nature of the test: Scirtothrips dorsalis leaf dip method. To be noted: foliar, capsicum leaves, second instar nymphs, 72 h after release, dead + moribund vs untreated control, read-out: percent mortality. As to the method: as §1, with “concentration. Capsicum” for “concentration. French bean”, “of second” for “of third”, “compounds 1,” for “compounds 1”, “2 and” for “2 26 38”, “40” for “40 46 47 48 and 49”

Test [1] deals with Amrasca biguttulla biguttulla. The experiment in a line: Amrasca biguttulla biguttulla leaf dip method. To be noted: Solanum melongena, foliar, brinjal leaves, second instar nymphs, 72 h after release, dead + moribund vs untreated control, read-out: percent mortality. As to the method: as §1, with “concentration. Brinjal” for “concentration. French bean”, “of second” for “of third”, “compounds 1,” for “compounds 1”, “2 and” for “2 26 38”, “40” for “40 46 47 48 and 49”

A word on the mortality: it is the percentage killed.

SMILES strings stand for the structures. Where only a bound is given, the exact number is not on record here.

With `Cc1cc(C2=NOC(c3cc(Cl)c(F)c(Cl)c3)(C(F)(F)F)C2)ccc1C(=O)N(CC(F)(F)F)c1nc(CCC(F)(F)F)n(CC(F)(F)F)n1` (stereo not shown) [Compound 111, 4-(5-(3,5-dichloro-4-fluorophenyl)-5-(trifluoromethyl)-4,5-dihydroisoxazol-3-yl)-2-methyl-N-(2,2,2-trifluoroethyl)-N-(1-(2,2,2-trifluoroethyl)-5-(3,3,3-trifluoropropyl)-1H-1,2,4-triazol-3-yl)benzamide], the mortality at 300 ppm with Plutella xylostella was at least 70%.

As to `Cc1cc(C2=NOC(c3cc(Cl)cc(Cl)c3)(C(F)(F)F)C2)ccc1C(=O)Nc1nc(C(C)(F)F)n(C)n1` (stereo not shown) [Compound 48, 4-(5-(3,5-dichlorophenyl)-5-(trifluoromethyl)-4,5-dihydroisoxazol-3-yl)-N-(5-(1,1-difluoroethyl)-1-methyl-1H-1,2,4-triazol-3-yl)-2-methylbenzamide], in the test with Tetranychus urticae, the mortality at 300 ppm is at least 70%.

Regarding `Cc1cc(C2=NOC(c3cc(Cl)cc(Cl)c3)(C(F)(F)F)C2)ccc1C(=O)N(CC(F)F)c1nc(CCC(F)(F)F)n(CC(F)F)n1` (stereo not shown) [Compound 87, 4-(5-(3,5-dichlorophenyl)-5-(trifluoromethyl)-4,5-dihydroisoxazol-3-yl)-N-(2,2-difluoroethyl)-N-(1-(2,2-difluoroethyl)-5-(3,3,3-trifluoropropyl)-1H-1,2,4-triazol-3-yl)-2-methylbenzamide], in the test with Plutella xylostella, the mortality at 300 ppm is at least 70%.

With `Cc1cc(C2=NOC(c3cc(Cl)c(F)c(Cl)c3)(C(F)(F)F)C2)ccc1C(=O)Nc1nc(C(F)(F)F)n(C)n1` (stereo not shown) [Compound 1, 4-(5-(3,5-dichloro-4-fluorophenyl)-5-(trifluoromethyl)-4,5-dihydroisoxazol-3-yl)-2-methyl-N-(1-methyl-5-(trifluoromethyl)-1H-1,2,4-triazol-3-yl)benzamide], the mortality at 300 ppm (in the test with Scirtothrips dorsalis; in the test with Tetranychus urticae; in test [1]) was at least 70% in each case.

Consider `Cc1cc(C2=NOC(c3cc(Cl)cc(Cl)c3)(C(F)(F)F)C2)ccc1C(=O)Nc1nc(C(F)(F)F)n(C)n1` (stereo not shown) [Compound 2, 4-(5-(3,5-dichlorophenyl)-5-(trifluoromethyl)-4,5-dihydroisoxazol-3-yl)-2-methyl-N-(1-methyl-5-(trifluoromethyl)-1H-1,2,4-triazol-3-yl)benzamide], for which the mortality at 300 ppm (in the test on Scirtothrips dorsalis; with Tetranychus urticae; in test [1]) was at least 70% each time.

For `Cc1cc(C2=NOC(c3cc(Cl)c(F)c(Cl)c3)(C(F)(F)F)C2)ccc1C(=O)N(C)c1nc(C(C)(F)F)n(C)n1` (stereo not shown) [Compound 46, 4-(5-(3,5-dichloro-4-fluorophenyl)-5-(trifluoromethyl)-4,5-dihydroisoxazol-3-yl)-N-(5-(1,1-difluoroethyl)-1-methyl-1H-1,2,4-triazol-3-yl)-N,2-dimethylbenzamide], the mortality at 300 ppm in the test on Tetranychus urticae was at least 70%.

For the compound `CCc1nc(NC(=O)c2ccc(C3=NOC(c4cc(Cl)cc(Cl)c4)(C(F)(F)F)C3)cc2C)nn1CC` (stereo not shown) [Compound 38, 4-(5-(3,5-dichlorophenyl)-5-(trifluoromethyl)-4,5-dihydroisoxazol-3-yl)-N-(1,5-diethyl-1H-1,2,4-triazol-3-yl)-2-methylbenzamide], the mortality at 300 ppm with Tetranychus urticae is at least 70%.

Consider `Cc1cc(C2=NOC(c3cc(Cl)cc(Cl)c3)(C(F)(F)F)C2)ccc1C(=O)N(CC(F)(F)F)c1nc(CCC(F)(F)F)n(CC(F)(F)F)n1` (stereo not shown) [Compound 83, 4-(5-(3,5-dichlorophenyl)-5-(trifluoromethyl)-4,5-dihydroisoxazol-3-yl)-2-methyl-N-(2,2,2-trifluoroethyl)-N-(1-(2,2,2-trifluoroethyl)-5-(3,3,3-trifluoropropyl)-1H-1,2,4-triazol-3-yl)benzamide], for which, in the test with Plutella xylostella, the mortality at 300 ppm was at least 70%.

`Cc1cc(C2=NOC(c3cc(Cl)c(F)c(Cl)c3)(C(F)(F)F)C2)ccc1C(=O)Nc1nc(C(C)C)n(C)n1` (stereo not shown) [Compound 26, 4-(5-(3,5-dichloro-4-fluorophenyl)-5-(trifluoromethyl)-4,5-dihydroisoxazol-3-yl)-N-(5-isopropyl-1-methyl-1H-1,2,4-triazol-3-yl)-2-methylbenzamide]: in the test with Tetranychus urticae, the mortality at 300 ppm is at least 70%.

For the compound `Cc1cc(C2=NOC(c3cc(Cl)cc(Cl)c3)(C(F)(F)F)C2)ccc1C(=O)N(C)c1nc(C(C)(F)F)n(C)n1` (stereo not shown) [Compound 49, 4-(5-(3,5-dichlorophenyl)-5-(trifluoromethyl)-4,5-dihydroisoxazol-3-yl)-N-(5-(1,1-difluoroethyl)-1-methyl-1H-1,2,4-triazol-3-yl)-N,2-dimethylbenzamide], in the test on Tetranychus urticae, the mortality at 300 ppm was at least 70%.

As for `Cc1cc(C2=NOC(c3cc(Cl)c(F)c(Cl)c3)(C(F)(F)F)C2)ccc1C(=O)Nc1nc(C(C)(F)F)n(C)n1` (stereo not shown) [Compound 47, 4-(5-(3,5-dichloro-4-fluorophenyl)-5-(trifluoromethyl)-4,5-dihydroisoxazol-3-yl)-N-(5-(1,1-difluoroethyl)-1-methyl-1H-1,2,4-triazol-3-yl)-2-methylbenzamide], in the test with Tetranychus urticae, the mortality at 300 ppm is at least 70%.

For the compound `Cc1cc(C2=NOC(c3cc(Cl)c(F)c(Cl)c3)(C(F)(F)F)C2)ccc1C(=O)N(CC(F)(F)F)c1nc(C(C)C)n(CC(F)(F)F)n1` (stereo not shown) [Compound 31, 4-(5-(3,5-dichloro-4-fluorophenyl)-5-(trifluoromethyl)-4,5-dihydroisoxazol-3-yl)-N-(5-isopropyl-1-(2,2,2-trifluoroethyl)-1H-1,2,4-triazol-3-yl)-2-methyl-N-(2,2,2-trifluoroethyl)benzamide], the mortality at 300 ppm with Plutella xylostella is at least 70%.

With `Cc1cc(C2=NOC(c3cc(Cl)c(F)c(Cl)c3)(C(F)(F)F)C2)ccc1C(=O)N(C)c1nc(C(F)(F)F)n(C)n1` (stereo not shown) [Compound 40, 4-(5-(3,5-dichloro-4-fluorophenyl)-5-(trifluoromethyl)-4,5-dihydroisoxazol-3-yl)-N,2-dimethyl-N-(1-methyl-5-(trifluoromethyl)-1H-1,2,4-triazol-3-yl)benzamide], the mortality at 300 ppm (in the test with Scirtothrips dorsalis; in the test with Tetranychus urticae; in test [1]) was at least 70% in each case.
